The values that follow come from patent US20260356840A1, “[1,2,4]TRIAZOLO[1,5-A]PYRIMIDINONE WRN INHIBITORS” (Nimbus Wadjet, Inc., priority 2023, published 2026).

Each structure is given as a SMILES string. pIC50: −log10 of the molar value.

In this test the target is T1, human Werner helicase (Uniprot Q14191, amino acids 517-1235 with L1074F point mutation), WRN-BV08 (Homo sapiens, UniProt Q14191, L1074F).
T1 construct: Uniprot Q14191, amino acids 517-1235 with L1074F point mutation; TEV cleavable 8xHis tag (C, cleaved yes); made in house; host or cells: Sf9 insect cells (baculovirus, pFastBac)
T1 sequence (Q14191 517-1235 L1074F): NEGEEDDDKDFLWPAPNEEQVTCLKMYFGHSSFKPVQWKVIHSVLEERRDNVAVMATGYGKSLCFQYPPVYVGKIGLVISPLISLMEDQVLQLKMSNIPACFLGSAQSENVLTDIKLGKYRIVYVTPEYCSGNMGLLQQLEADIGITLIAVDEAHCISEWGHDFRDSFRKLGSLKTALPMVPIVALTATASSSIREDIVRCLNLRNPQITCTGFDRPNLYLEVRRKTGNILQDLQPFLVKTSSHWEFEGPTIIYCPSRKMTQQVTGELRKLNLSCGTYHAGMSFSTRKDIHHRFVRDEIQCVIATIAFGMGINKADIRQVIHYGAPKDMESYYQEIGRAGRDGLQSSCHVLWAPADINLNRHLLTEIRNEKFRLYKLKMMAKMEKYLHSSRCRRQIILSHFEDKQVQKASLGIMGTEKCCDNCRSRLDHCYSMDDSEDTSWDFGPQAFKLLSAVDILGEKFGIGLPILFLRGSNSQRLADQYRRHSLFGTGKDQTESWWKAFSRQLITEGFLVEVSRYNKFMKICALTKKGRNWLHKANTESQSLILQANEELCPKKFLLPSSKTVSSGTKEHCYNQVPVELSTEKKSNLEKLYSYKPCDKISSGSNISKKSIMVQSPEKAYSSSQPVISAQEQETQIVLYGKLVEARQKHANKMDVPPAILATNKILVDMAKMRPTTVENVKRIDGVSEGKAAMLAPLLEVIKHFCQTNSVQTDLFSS
Kind of test: WRN (BV08) ADP-Glo Assay. It is filed as biochemical.
Regarding `CCc1c(N2CCN(C(=O)c3cnn(C)c3)CC2)c(=O)n2nc(-c3ccnc(OC)c3)nc2n1CC(=O)Nc1ccc(S(F)(F)(F)(F)F)cc1Cl` [Compound I-82, N-[2-chloro-4-(pentafluoro-lambda6-sulfanyl)phenyl]-2-[5-ethyl-2-(2-methoxypyridin-4-yl)-6-[4-(1-methyl-1H-pyrazole-4-carbonyl)piperazin-1-yl]-7-oxo-4H,7H-[1,2,4]triazolo[1,5-a]pyrimidin-4-yl]acetamide], the pIC50 is 7.30 to 8.30.

Take `CCc1c(N2CCN(C(=O)c3ncc4c(c3O)OCC4)CC2)c(=O)n2nc(C3=CCOCC3)nc2n1CC(=O)Nc1ccc(C(F)(F)F)cc1Cl` [Compound I-83, N-[2-chloro-4-(trifluoromethyl)phenyl]-2-[2-(3,6-dihydro-2H-pyran-4-yl)-5-ethyl-6-(4-{7-hydroxy-2H,3H-furo[3,2-c]pyridine-6-carbonyl}piperazin-1-yl)-7-oxo-4H,7H-[1,2,4]triazolo[1,5-a]pyrimidin-4-yl]acetamide]: the pIC50 was 7.30 to 8.30. `CCc1c(N2CCN(C(=O)c3ncc4c(c3O)CCO4)CC2)c(=O)n2nc(C3=CCOCC3)nc2n1CC(=O)Nc1ccc(C(F)(F)F)cc1Cl` [Compound I-84, N-[2-chloro-4-(trifluoromethyl)phenyl]-2-[2-(3,6-dihydro-2H-pyran-4-yl)-5-ethyl-6-(4-{4-hydroxy-2H,3H-furo[2,3-c]pyridine-5-carbonyl}piperazin-1-yl)-7-oxo-4H,7H-[1,2,4]triazolo[1,5-a]pyrimidin-4-yl]acetamide]: the pIC50 is more than 8.30. Turning to `CCc1c(N2CCN(C(=O)c3ncc4c(c3O)CCO4)CC2)c(=O)n2nc(-c3ccnc(OC)c3)nc2n1CC(=O)Nc1ccc(C(F)(F)F)cc1Cl` [Compound I-85, N-[2-chloro-4-(trifluoromethyl)phenyl]-2-[5-ethyl-6-(4-{4-hydroxy-2H,3H-furo[2,3-c]pyridine-5-carbonyl}piperazin-1-yl)-2-(2-methoxypyridin-4-yl)-7-oxo-4H,7H-[1,2,4]triazolo[1,5-a]pyrimidin-4-yl]acetamide], the pIC50 is more than 8.30.

`CCc1c(N2CCN(C(=O)c3ncc4c(c3O)OCC4)CC2)c(=O)n2nc(-c3ccnc(OC)c3)nc2n1CC(=O)Nc1ccc(C(F)(F)F)cc1Cl` [Compound I-86, N-[2-chloro-4-(trifluoromethyl)phenyl]-2-[5-ethyl-6-(4-{7-hydroxy-2H,3H-furo[3,2-c]pyridine-6-carbonyl}piperazin-1-yl)-2-(2-methoxypyridin-4-yl)-7-oxo-4H,7H-[1,2,4]triazolo[1,5-a]pyrimidin-4-yl]acetamide] showed a pIC50 of more than 8.30. The value for `CCc1c(N2CCN(C(C)=O)CC2)c(=O)n2nc(-c3cnc(C(C)(C)O)s3)nc2n1CC(=O)Nc1ccc(C(F)(F)F)cc1Cl` [Compound I-87, 2-[6-(4-acetylpiperazin-1-yl)-5-ethyl-2-[2-(2-hydroxypropan-2-yl)-1,3-thiazol-5-yl]-7-oxo-4H,7H-[1,2,4]triazolo[1,5-a]pyrimidin-4-yl]-N-[2-chloro-4-(trifluoromethyl)phenyl]acetamide] was 7.30 to 8.30; that for `CCc1c(N2CCN(C(=O)c3nocc3O)CC2)c(=O)n2nc(-c3ccnc(OC)c3)nc2n1CC(=O)Nc1ccc(C(F)(F)F)cc1Cl` [Compound I-88, N-[2-chloro-4-(trifluoromethyl)phenyl]-2-{5-ethyl-6-[4-(4-hydroxy-1,2-oxazole-3-carbonyl)piperazin-1-yl]-2-(2-methoxypyridin-4-yl)-7-oxo-4H,7H-[1,2,4]triazolo[1,5-a]pyrimidin-4-yl}acetamide] was 7.30 to 8.30.
